Data reported in patent US8383637B2, “2-amino-quinazoline derivatives useful as inhibitors of β-secretase (BACE)” (Jansssen Pharmaceutica N.V., priority 2004, dated 2013).
Where two headings read alike, the source gives them in different places.

Biological target: T1, β-secretase(BACE) (Homo sapiens, UniProt P56817)
T1 construct: purchased Panvera
Test: BACE FS1% Inhibition Assay
Type: biochemical
Conditions: FS1 substrate; for % Inhibition (FS) 10 μM: 10 μM test compound
In short: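 Percent inhibition at each tested concentration, referenced to enzyme-free blank and vehicle-only positive control. Reaction: compound and BACE (4 μg/mL working stock) mixed 20 min at room temperature before FS1 substrate (300 μg/mL working stock), then 1 h at room temperature.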

[1] = 0.3 μM test compound, read-out: % Inhibition (FS) 0.3 μM
[2] = 1 μM test compound, read-out: % Inhibition (FS) 1 μM
[3] = 3 μM test compound, read-out: % Inhibition (FS) 3 μM

T1 sequence (P56817 46-501): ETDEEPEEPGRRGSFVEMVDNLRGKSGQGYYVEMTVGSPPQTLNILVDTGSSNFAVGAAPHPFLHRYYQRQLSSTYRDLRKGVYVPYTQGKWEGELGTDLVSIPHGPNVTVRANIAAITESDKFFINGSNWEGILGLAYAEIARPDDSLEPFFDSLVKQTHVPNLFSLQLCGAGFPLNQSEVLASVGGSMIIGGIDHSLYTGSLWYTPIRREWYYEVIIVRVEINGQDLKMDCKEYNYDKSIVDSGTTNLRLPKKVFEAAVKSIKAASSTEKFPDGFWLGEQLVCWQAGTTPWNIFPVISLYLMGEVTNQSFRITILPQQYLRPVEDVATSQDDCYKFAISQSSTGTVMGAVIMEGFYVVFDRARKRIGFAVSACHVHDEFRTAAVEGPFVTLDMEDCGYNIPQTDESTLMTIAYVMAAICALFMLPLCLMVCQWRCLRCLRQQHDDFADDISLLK

Row | SMILES | % Inhibition (FS) 0.3 μM (0.3 μM test compound) [%] | % Inhibition (FS) 1 μM (1 μM test compound) [%] | % Inhibition (FS) 3 μM (3 μM test compound) [%] | further results
1 | Cc1cccc(Sc2ccc3c(c2)CN(Cc2cccc(C(=O)N(C)C4CCCCC4)c2)C(N)=N3)c1 [Compound 405] | 43 | 106 | 118 | 
2 | CCCCC(CC)C(=O)NCCN1Cc2cc(-c3ccccc3F)ccc2N=C1N (stereo not shown) [Compound 648] | 39 | 74 | 104 | 
3 | COc1ccccc1-c1ccc2c(c1)CN([C@@H](CCC(=O)N(C)Cc1cc(C)no1)C1CCCCC1)C(N)=N2 [Compound 718] |  |  |  | % Inhibition (FS) (0.3 μM test compound): <30%; % Inhibition (FS) (1 μM test compound): 30%; % Inhibition (FS) (3 μM test compound): 114%
4 | NC1=Nc2ccc(Oc3ccccc3)cc2CN1C(CC(=O)NC1CCCCC1)c1ccccc1 (stereo not shown) [Compound 299] | <30 | <30 | <30 | 
5 | NC1=Nc2ccc(Oc3ccccc3)cc2CN1C(CCCC(=O)N1CCCCC1)CCC(=O)N1CCCCC1 (stereo not shown) [Compound 452] | <30 | 42 | 78 | 
6 | CCCC(CCC)C(=O)N1CCC(CN2Cc3cc(Oc4ccccc4)ccc3N=C2N)CC1 [Compound 526] | <30 | 36 | 98 | 
7 | CCCc1cccc(C)c1Oc1ccc2c(c1)CN(Cc1cccc(C(=O)N(C)C3CCCCC3)c1)C(N)=N2 [Compound 482] | <30 | <30 | 43 | 
8 | CC(=O)Nc1cccc(Oc2ccc3c(c2)CN(Cc2cccc(C(=O)N(C)C4CCCCC4)c2)C(N)=N3)c1 [Compound 229] | <30 | 35 | <30 | 
9 | COc1cccc(OC)c1Oc1ccc2c(c1)CN(CCC(=O)NC1C3CC4CC(C3)CC1C4)C(N)=N2 (stereo not shown) [Compound 465] | <30 | <30 | <30 | 
10 | CC(C)c1ccccc1Oc1ccc2c(c1)CN(CCC(=O)NC1C3CC4CC(C3)CC1C4)C(N)=N2 (stereo not shown) [Compound 466] | <30 | <30 | 53 | 
11 | COc1cccc(F)c1-c1ccc2c(c1)CN(CCNC(=O)C1CCC(C(F)(F)F)CC1)C(N)=N2 (stereo not shown) [Compound 700] |  |  |  | % Inhibition (FS) (0.3 μM test compound): <30%; % Inhibition (FS) (1 μM test compound): 36%; % Inhibition (FS) (3 μM test compound): 85%
12 | CC(=O)Nc1ccc(Sc2ccc3c(c2)CN(Cc2cccc(C(=O)N(C)C4CCCCC4)c2)C(N)=N3)cc1 [Compound 417] | <30 | <30 | 78 | 
13 | NC1=Nc2ccc(Oc3ccccc3)cc2CN1CCNC(=O)c1ccc(-c2ccccc2)cc1 [Compound 195] | <30 | <30 | <30 | 
14 | CCCC=Cc1ccc2c(c1)CN(CCNC(=O)CC1CCCC1)C(N)=N2 [Compound 580] | <30 | <30 | <30 | 
15 | NC1=Nc2ccc(Oc3ccccc3)cc2CN1C(CC(=O)NC1CCCCC1)C1CCCCC1 (stereo not shown) [Compound 300] | <30 | <30 | 77 | 
16 | CN(C)c1ccc(Nc2ccc3c(c2)CN(Cc2cccc(C(=O)N(C)C4CCCCC4)c2)C(N)=N3)cc1 [Compound 438] | <30 | <30 | <30 | 
17 | NC1=Nc2ccc(C3=CCCC3)cc2CN1CCNC(=O)C1CCC(C(F)(F)F)CC1 (stereo not shown) [Compound 707] |  |  |  | % Inhibition (FS) (0.3 μM test compound): <30%; % Inhibition (FS) (1 μM test compound): <30%; % Inhibition (FS) (3 μM test compound): <30%
18 | NC1=Nc2ccc(Oc3ccccc3)cc2CN1Cc1cccc(CNC(=O)C(F)(F)F)c1 [Compound 307] | <30 | <30 | <30 | 
19 | CCCCCCCCC(CCC(=O)NC1CCCCCC1)N1Cc2cc(Oc3ccccc3)ccc2N=C1N (stereo not shown) [Compound 208] | <30 | <30 | 67 | 

Row | SMILES | % Inhibition (FS) 0.3 μM (0.3 μM test compound) [%] | % Inhibition (FS) 1 μM (1 μM test compound) [%] | % Inhibition (FS) 3 μM (3 μM test compound) [%] | further results
20 | CN(C(=O)c1cccc(CN2Cc3cc(Nc4ccc5c(c4)OCO5)ccc3N=C2N)c1)C1CCCCC1 [Compound 441] | <30 | 29 | 48 | 
21 | CN(C(=O)c1cccc(CN2Cc3cc(Oc4cccc(Oc5ccccc5)c4)ccc3N=C2N)c1)C1CCCCC1 [Compound 236] | <30 | 37 | 49 | 
22 | NC1=Nc2ccc(Oc3ccccc3)cc2CN1C(CC(=O)NC1C2CC3CC(C2)CC1C3)C1CCCCC1 (stereo not shown) [Compound 314] | <30 | 45 | 85 | 
23 | NC1=Nc2ccc(Oc3ccccc3)cc2CN1CCCCNC(=O)C1CCCCC1 [Compound 115] |  |  | 40 | % Inhibition (FS) 10 μM: 105%
24 | COc1ccc(-c2ccc3c(c2)CN(C(CCC(=O)N(C)C2CCCCC2)C2CCCCC2)C(N)=N3)cc1 (racemic) [Compound 226] | <30 | <30 | 54 | 
25 | COc1ccccc1-c1ccc2c(c1)N=C(N)N(CCC(=O)NC1C3CC4CC(C3)CC1C4)C2 (stereo not shown) [Compound 617, N-Adamantan-2-yl-3-[2-amino-7-(2-methoxy-phenyl)-4H-quinazolin-3-yl]-propionamide] |  |  |  | inhibition at 0.3 µM [1]: < 30%; inhibition at 1 µM [2]: 34%; inhibition at 3 µM [3]: 41%
26 | C=CCc1cccc(C)c1Oc1ccc2c(c1)CN(Cc1cccc(C(=O)N(C)C3CCCCC3)c1)C(N)=N2 [Compound 480] | <30 | <30 | 38 | 
27 | NC1=Nc2ccc(Br)cc2CN1CCC(=O)NC12CC3CC(CC(C3)C1)C2 [Compound 804] |  |  |  | inhibition at 0.3 µM (0.3 μM test compound, read-out: % Inhibition (FS)): < 30%; inhibition at 1 µM (1 μM test compound, read-out: % Inhibition (FS)): < 30%; inhibition at 3 µM (3 μM test compound, read-out: % Inhibition (FS)): < 30%
28 | CN(C(=O)c1cccc(CN2Cc3cc(-c4cccc(-c5ccccc5)c4)ccc3N=C2N)c1)C1CCCCC1 [Compound 171] | <30 | 31 | 42 | 
29 | NC1=Nc2ccc(Oc3ccccc3)cc2CN1C1CCN(C(=O)C2CCCC2)C1 (stereo not shown) [Compound 120] |  |  | <30 | % Inhibition (FS) 10 μM: 34%
30 | CC(C)(C)OC(=O)N1CCCCC(N2Cc3cc(Oc4ccccc4)ccc3N=C2N)C1 (stereo not shown) [Compound 510] | <30 | <30 | 37 | 
31 | CC(=O)Nc1cccc(-c2ccc3c(c2)CN(Cc2cccc(C(=O)N(C)C4CCCCC4)c2)C(N)=N3)c1 [Compound 166] | <30 | 37 | 74 | 
32 | CC(CC(=O)NCCN1Cc2cc(-c3ccccc3Cl)ccc2N=C1N)C(F)(F)F (stereo not shown) [Compound 683] |  |  |  | % Inhibition (FS) (0.3 μM test compound): 64%; % Inhibition (FS) (1 μM test compound): 86%; % Inhibition (FS) (3 μM test compound): 102%
33 | CCCC=Cc1ccc2c(c1)CN(CCNC(=O)c1ccc(NC(C)=O)cc1)C(N)=N2 [Compound 592] | <30 | <30 | <30 | 
34 | CCc1ccccc1Sc1ccc2c(c1)CN(Cc1cccc(C(=O)N(C)C3CCCCC3)c1)C(N)=N2 [Compound 406] | <30 | <30 | 50 | 
35 | NC1=Nc2ccc(-c3ccccc3F)cc2CN1CCNC(=O)CCC(F)(F)F [Compound 680] |  |  |  | % Inhibition (FS) (0.3 μM test compound): 42%; % Inhibition (FS) (1 μM test compound): 75%; % Inhibition (FS) (3 μM test compound): 90%
36 | NC1=Nc2ccc(Oc3ccccc3)cc2CN1C(CC(=O)NC1CC2CCC1C2)C1CCCCC1 (stereo not shown) [Compound 400, 3-(2-Amino-6-phenoxy-4H-quinazolin-3-yl)-N-bicyclo[2.2.1]hept-2-yl-3-cyclohexyl-propionamide] |  |  |  | inhibition at 0.3 µM [1]: < 30%; inhibition at 1 µM [2]: < 30%; inhibition at 3 µM [3]: 94%
37 | CN(C)c1cccc(Oc2ccc3c(c2)CN(Cc2cccc(C(=O)N(C)C4CCCCC4)c2)C(N)=N3)c1 [Compound 479] | <30 | <30 | 81 | 
